Source: patent publication US6913900B2, “Plasma prekallikrein activation and kallikrein production assay” (Nippon Zoki Pharmaceutical Co., Ltd., priority 2001, dated 2005)
Entries after “also recorded” stand apart in the source; their conditions may differ. Read-outs that look alike come from different tables or passages of the source.

Legend:
[1] = tested on: prekallikrein activating factor (PK activation); assay: Inhibition profile of PK activation (prekallikrein activation assay, kallikrein substrate S-2302, O.D. 405 nm); format: biochemical, human
Excerpt: In embodiments of the invention the reaction time may be fixed or “set.” The reaction time can be “set” by stopping the production of kallikrein, for example, by adding a prekallikrein activation inhibitor to the system of the present invention after a desired reaction time. Also, by adding a coloring or fluorescent synthetic substrate to the reaction system from the start or beginning, the produced amount of kallikrein (coloring or fluorescent intensity) may be observed at different lapses of time. […] When the reaction is stopped, the produced kallikrein can be quantitatively determined using an enzymatic activity of kallikrein as a target, for example, by applying a substrate to kallikrein.
When the reaction is stopped, the produced plasma kallikrein can be determined using an enzymatic activity of the plasma kallikrein as a target by utilizing a substrate to the plasma kallikrein.
(§1) Assays were performed in HEPES buffered saline (HBS) (10 mM Hepes, 137 mM NaCl, 4 mM KCl, 11 mM D-glucose, and 0.5 mg/ml RIA grade bovine serum albumin, pH 7.4), with a kallikrein specific substrate (0.6 mM S-2302). For assays using the cell-free system, 96 well disposable polystyrene microtiter plates (Dynatech Laboratories, Chantilly, Va.) were used. These microtiter plates were pretreated with 1% polyethylene glycol (Aquacide III, Calbiochem, Calif.) in HBS for two hours to prevent adsorption of proteins to polystyrene. The absorbance (O.D. at 405 nm or optical density at 405 nm) was monitored at room temperature on a Molecular Devices (Sunnyvale, Calif.) THERMOmax microplate reader. Just prior to the assay all the proteins were treated with 2.0 mM (4-amidinophenyl)methanesulfonyl fluoride (APMSF) for 15 minutes at pH 5.5, after which they were diluted 1:100 with HBS and incubated for 45 minutes to allow for the decomposition of any unreacted APMSF at the neutral pH. The proteins were treated with APMSF before use and were inactivated for the sake of safety.

[2] = tested on: HSP 90-dependent prekallikrein activation; assay: HSP 90-dependent prekallikrein activation (HSP 90, HK, zinc, PK, S-2302); format: biochemical, human; conditions: purified HSP 90 activator, HK and zinc present
Experimental: as §1
HSP 90 was confirmed as a prekallikrein activator, which was functionally indistinguishable from the cytosolic extract (FIG. 2). A HUVEC activator system was functionally effective as well (FIG. 1). […] The incubation mixture used is as follows: […]

[3] = tested on: activation of prekallikrein in the presence of phosphate and zinc ions; assay: Prekallikrein activation by phosphate ion (PBS, zinc, HK, PK, S-2302); format: biochemical; conditions: phosphate ion activator, no FXIIa, HUVEC or HSP 90
Experimental: as §1, with “safety. […]” for “safety.”

C[C@H](CS)C(=O)N1CCC[C@H]1C(=O)O [Captopril]
inhibition of the prekallikrein activator in this system (in words) [1]: good inhibitors | % inhibition of PK activation ([1]; inhibitor concentration 10 mM): 97.9%

N[C@@H](CS)C(=O)O [Cysteine]
% inhibition of PK activation ([1]; inhibitor concentration 10 mM): 59.6%

O[C@@H](CS)[C@@H](O)CS [DTT]
% inhibition of PK activation ([1]; inhibitor concentration 10 mM): 69.1%

O=C(O)CN(CCN(CC(=O)O)CC(=O)O)CC(=O)O [EDTA]
% inhibition of PK activation [1]: 85.4% | inhibition of the prekallikrein activator in this system (in words) [1]: good inhibitors

N[C@@H](CCC(=O)N[C@@H](CS)C(=O)NCC(=O)O)C(=O)O [Glutathione]
% inhibition of PK activation ([1]; inhibitor concentration 100 μM): 18.6%

[Cl][Hg][Cl] [HgCl2]
inhibition of the prekallikrein activator in this system (in words) [1]: good inhibitors | % inhibition of PK activation ([1]; inhibitor concentration 1 mM): 98%

CC(C)Cc1ccc(C(C)C(=O)O)cc1 (stereo not shown) [Ibuprofen]
inhibition of HSP 90-dependent prekallikrein activation (in words) [2]: inhibited by Ibuprofen dose-dependently | inhibition of prekallikrein activation in the presence of phosphate and zinc ions (in words) [3]: inhibited by Ibuprofen dose-dependently

NC(=O)CI [Iodoacetamide]
% inhibition of PK activation ([1]; inhibitor concentration 10 mM): 7%

OCCS [Mercaptoethanol]
inhibition of the prekallikrein activator in this system (in words) [1]: good inhibitors | % inhibition of PK activation ([1]; inhibitor concentration 5%): 85.5%

Aprotinin
inhibition of the prekallikrein activator in this system (in words) [1]: good inhibitors | % inhibition of PK activation ([1]; inhibitor concentration 100 μM): 96.4%

Corn Trypsin Inhibitor
% inhibition of PK activation ([1]; inhibitor concentration 10 μM): 94.3% | inhibition of the prekallikrein activator in this system (in words) ([1]; listed as CTI): good inhibitors; also recorded: could be inhibited by CTI | inhibition of HSP 90-dependent prekallikrein activation (in words) [2]: inhibited by CTI

Cystatin
% inhibition of PK activation ([1]; inhibitor concentration 10 μg/ml): 4.5%

B1: SBTI: soybean trypsin inhibitor (SBTI) (protein, UniProt P01070 25-205, looked up)
Trypsin inhibitor A: DFVLDNEGNPLENGGTYYILSDITAFGGIRAAPTGNERCPLTVVQSRNELDKGIGTIISSPYRIRFIAEGHPLSLKFDSFAVIMLCVGIPTEWSVVEDLPEGPAVKIGENKDAMDGWFRLERVSDDEFNNYKLVFCPQQAEDDKCGDIGISIDHDDGTRRLVVSKNKPLVVQFQKLDKESL
inhibition of the prekallikrein activator in this system (in words) [1]: good inhibitors | % inhibition of PK activation ([1]; inhibitor concentration 50 μg/ml): 98.6%
